This assay concerns the target T1, recombinant human GST-SYK (Homo sapiens, UniProt P43405).
T1 construct: purchased Carna Biosciences 08-176
Description: Homogeneous Time-Resolved Fluorescence (HTRF) assay for the recombinant human Syk enzyme. The conditions noted are these: HTRF assay, recombinant human GST-SYK; IC50 given as class symbols; read-out: rhSYK Activity. Type of assay: biochemical. The method in brief:
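GST-hSYK ([…]) was preincubated with inhibitor (0.1% DMSO) for 10 min at room temperature in Tris-HCl pH 7.5 with tween 20 and DTT. Biotinylated peptide (250 nM), Mg (5 mM) and ATP (25 μM) were added for 45 min. The reaction was quenched with EDTA, and phosphotyrosine was read by Eu-antibody/SA-APC HTRF after 30 min.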
(In general: Time-resolved FRET reads energy transfer from a long-lived donor to a nearby acceptor.)
For `Cc1cc(Nc2nccc(C(F)(F)F)n2)cc(-c2ccc(NC(=O)CC#N)nc2)c1` [Example 2.109, 2-cyano-N-[5-(3-methyl-5-{[4-(trifluoromethyl)pyrimidin-2-yl]amino}phenyl)pyridin-2-yl]acetamide], the IC50 was less than 100 nM.
The same measure for `Cc1cc(Nc2nccc(C(F)(F)F)n2)cc(-c2ccnc(C(F)(F)F)c2)c1` [Example 2.123, N-{3-methyl-5-[2-(trifluoromethyl)pyridin-4-yl]phenyl}-4-(trifluoromethyl)pyrimidin-2-amine]: 100 to 1000 nM.
The same measure for `CCC(C)(C#N)Nc1ccc(-c2cc(C)cc(Nc3nccc(C(F)(F)F)n3)c2)cn1` (centres unmarked) [Example 18.4, 2-methyl-2-{[5-(3-methyl-5-{[4-(trifluoromethyl)pyrimidin-2-yl]amino}phenyl)pyridin-2-yl]amino}butanenitrile]: 100 to 1000 nM.
For the molecule `Cn1c(-c2cccc(Nc3nccc(C(F)(F)F)n3)c2)cccc1=O` [Example 5.3, 1-methyl-6-(3-{[4-(trifluoromethyl)pyrimidin-2-yl]amino}phenyl)pyridin-2(1H)-one], the IC50 was 100 to 1000 nM.
The same measure for `Cc1cc(Nc2nccc(C(F)(F)F)n2)cc(-c2ccc(N[C@@H](Cc3c[nH]cn3)C(=O)O)nc2)c1` [Example 7.112, N-[5-(3-methyl-5-{[4-(trifluoromethyl)pyrimidin-2-yl]amino}phenyl)pyridin-2-yl]-L-histidine]: less than 100 nM; for `Cc1cc(Nc2nccc(C(F)(F)F)n2)cc(-c2ccc(NC3CCNC3=O)nc2)c1` (centres unmarked) [Example 7.157, 3-{[5-(3-methyl-5-{[4-(trifluoromethyl)pyrimidin-2-yl]amino}phenyl)pyridin-2-yl]amino}pyrrolidin-2-one]: less than 100 nM.
The value for `Cc1cc(Nc2nccc(C(F)(F)F)n2)cc(-c2cnc3c(c2)OCCN3C)c1` [Example 2.55, N-[3-methyl-5-(4-methyl-3,4-dihydro-2H-pyrido[3,2-b][1,4]oxazin-7-yl)phenyl]-4-(trifluoromethyl)pyrimidin-2-amine] was less than 100 nM.
Turning to `CCOC(=O)C(F)(F)C(O)c1ccc(-c2cc(C)cc(Nc3nccc(C(F)(F)F)n3)c2)cn1` (centres unmarked) [Example 24.1, Ethyl 2,2-difluoro-3-hydroxy-3-[5-(3-methyl-5-{[4-(trifluoromethyl)pyrimidin-2-yl]amino}phenyl)pyridin-2-yl]propanoate], the IC50 was less than 100 nM.
Regarding `Cc1cc(Nc2nccc(C(F)(F)F)n2)cc(-c2cncc(C3(O)COC3)c2)c1` [Example 9.79, 3-[5-(3-methyl-5-{[4-(trifluoromethyl)pyrimidin-2-yl]amino}phenyl)pyridin-3-yl]oxetan-3-ol], the IC50 is less than 100 nM.
As to `CCOC(=O)CCc1ccnc(-c2cc(C)cc(Nc3nccc(C)n3)c2)c1` [Example 2.33, ethyl 3-(2-{3-methyl-5-[(4-methylpyrimidin-2-yl)amino]phenyl}pyridin-4-yl)propanoate], the IC50 was 100 to 1000 nM.
`Cc1cc(Nc2nccc(C(F)(F)F)n2)cc(-c2ccc(N3CCC[C@@]3(C)C(=O)O)nc2)c1` [Example 7.121, 2-methyl-1-[5-(3-methyl-5-{[4-(trifluoromethyl)pyrimidin-2-yl]amino}phenyl)pyridin-2-yl]-L-proline]: the IC50 is less than 100 nM.
The value for `NC(=O)c1ccc(-c2cccc(Nc3nccc(C(F)(F)F)n3)c2)nc1` [Example 2.8, 6-(3-{[4-(trifluoromethyl)pyrimidin-2-yl]amino}phenyl)pyridine-3-carboxamide] was 100 to 1000 nM; that for `Cc1cc(Nc2nccc(C(F)(F)F)n2)cc(-c2ccnc([C@]3(O)CC[C@@H](O)CC3)c2)c1` [Example 9.3, Cis-1-[4-(3-methyl-5-{[4-(trifluoromethyl)pyrimidin-2-yl]amino}phenyl)pyridine-2-yl]cyclohexane-1,4-diol] was less than 100 nM.
The value for `Cc1cc(Nc2nccc(C(F)(F)F)n2)cc(-c2ccc(NCC3CCC(=O)N3)nc2)c1` (centres unmarked) [Example 7.16, 5-({[5-(3-methyl-5-{[4-(trifluoromethyl)pyrimidin-2-yl]amino}phenyl)pyridin-2-yl]amino}methyl)pyrrolidin-2-one] was less than 100 nM; that for `Cc1cc(Nc2nccc(C(F)(F)F)n2)cc(-c2ccc(NCC(C)O)nc2)c1` (centres unmarked) [Example 7.40, 1-{[5-(3-methyl-5-{[4-(trifluoromethyl)pyrimidin-2-yl]amino}phenyl)pyridin-2-yl]amino}propan-2-ol] was less than 100 nM.
The value for `Cn1cc(-c2cccc(Nc3nccc(C(F)(F)F)n3)c2)ccc1=O` [Example 5.1, 1-Methyl-5-(3-{[4-(trifluoromethyl)pyrimidin-2-yl]amino}phenyl)pyridin-2(1H)-one] was 100 to 1000 nM; that for `O=C(O)CCc1ccnc(-c2cccc(Nc3nccc(C(F)(F)F)n3)c2)c1` [Example 2.18, 3-[2-(3-{[4-(trifluoromethyl)pyrimidin-2-yl]amino}phenyl)pyridin-4-yl]propanoic acid] was 100 to 1000 nM.
With `Cc1cc(Nc2nccc(C(F)(F)F)n2)cc(-c2ccc(N[C@@H](Cc3ccccc3)C(=O)O)nc2)c1` [Example 7.155, N-[5-(3-methyl-5-{[4-(trifluoromethyl)pyrimidin-2-yl]amino}phenyl)pyridin-2-yl]-L-phenylalanine], the IC50 is less than 100 nM.
The value for `CCOC(=O)C1CCCC(O)(c2cncc(-c3cc(C)cc(Nc4nccc(C(F)(F)F)n4)c3)c2)C1` (centres unmarked) [Example 9.77, ethyl 3-hydroxy-3-[5-(3-methyl-5-{[4-(trifluoromethyl)pyrimidin-2-yl]amino}phenyl)pyridin-3-yl]cyclohexanecarboxylate] was 100 to 1000 nM; that for `COc1ccnc(Nc2cc(C)cc(-c3ccc(C(C)(O)[C@H]4CC[C@H](C(=O)O)CC4)nc3)c2)n1` (single isomer, unassigned) [Example 9.17, trans-4-[(1R or 1S)-1-hydroxy-1-(5-{3-[(4-methoxypyrimidin-2-yl)amino]-5-methylphenyl}pyridin-2-yl)ethyl]cyclohexanecarboxylic acid] was less than 100 nM; that for `Cc1cc(Nc2nccc(C(F)(F)F)n2)cc(-c2ccc(C(=O)NC3CCNC3=O)nc2)c1` (centres unmarked) [Example 16.26, 5-(3-methyl-5-{[4-(trifluoromethyl)pyrimidin-2-yl]amino}phenyl)-N-(2-oxopyrrolidin-3-yl)pyridine-2-carboxamide] was less than 100 nM.
The same measure for `Cc1cc(Nc2nccc(C(F)(F)F)n2)cc(-c2ccc(NC3(C(=O)O)CC3)nc2)c1` [Example 7.129, 1-{[5-(3-methyl-5-{[4-(trifluoromethyl)pyrimidin-2-yl]amino}phenyl)pyridin-2-yl]amino}cyclopropanecarboxylic acid]: less than 100 nM; for `Cc1cc(Nc2nccc(C(F)(F)F)n2)cc(-c2cncc(C3(O)CCN(C(N)=O)CC3)c2)c1` [Example 10.1, 4-Hydroxy-4-[5-(3-methyl-5-{[4-(trifluoromethyl)pyrimidin-2-yl]amino}phenyl)pyridin-3-yl]piperidine-1-carboxamide]: less than 100 nM.
The same measure for `Cc1cc(Nc2nccc(C(F)(F)F)n2)cc(-c2cncc(C3(O)CCC(C(=O)O)C3)c2)c1` (centres unmarked) [Example 9.5, 3-Hydroxy-3-[5-(3-methyl-5-{[4-(trifluoromethyl)pyrimidin-2-yl]amino}phenyl)pyridin-3-yl]cyclopentanecarboxylic acid]: less than 100 nM; for `Cc1cc(Nc2nccc(C(F)(F)F)n2)cc(-c2ccc(N[C@@H]3CCC(=O)NC3)nc2)c1` [Example 7.51, (5R)-5-{[5-(3-methyl-5-{[4-(trifluoromethyl)pyrimidin-2-yl]amino}phenyl)pyridin-2-yl]amino}piperidin-2-one]: less than 100 nM; for `CC1(C(=O)O)CCC(O)(c2ccc(-c3cc(Nc4nccc(C(F)(F)F)n4)cc(C(F)F)c3)cn2)CC1` (stereo not drawn) [Example 9.12, cis-4-{5-[3-(difluoromethyl)-5-{[4-(trifluoromethyl)pyrimidin-2-yl]amino}phenyl]pyridin-2-yl}-4-hydroxy-1-methylcyclohexanecarboxylic acid]: less than 100 nM.
Take `Cc1cc(Nc2nccc(C(F)(F)F)n2)cc(-c2cncc(C(C)(O)C(F)(F)F)c2)c1` (centres unmarked) [Example 2.75, 1,1,1-trifluoro-2-[5-(3-methyl-5-{[4-(trifluoromethyl)pyrimidin-2-yl]amino}phenyl)pyridin-3-yl]propan-2-ol]: the IC50 was less than 100 nM.
The same measure for `Cc1cc(Nc2nccc(C(F)(F)F)n2)cc(-c2ccc(/C=C/C(=O)O)nc2)c1` [Example 22.2, 3-[5-(3-Methyl-5-{[4-(trifluoromethyl)pyrimidin-2-yl]amino}phenyl)pyridin-2-yl]prop-2-enoic acid]: less than 100 nM; for `Cc1cc(Nc2nccc(C(F)(F)F)n2)cc(-c2ccc(NC3(C(=O)O)CC3)nc2)c1` [Example 7.81, 1-{[5-(3-methyl-5-{[4-(trifluoromethyl)pyrimidin-2-yl]amino}phenyl)pyridin-2-yl]amino}cyclopropanecarboxylic acid]: 100 to 1000 nM.
For the molecule `Cc1cc(Nc2nccc(C(F)(F)F)n2)cc(-c2ccc(N[C@H]3CC[C@@H](C(=O)O)CC3)nc2)c1` [Example 7.142, cis-4-{[5-(3-methyl-5-{[4-(trifluoromethyl)pyrimidin-2-yl]amino}phenyl)pyridin-2-yl]amino}cyclohexanecarboxylic acid], the IC50 is less than 100 nM.
The same measure for `Cc1cc(Nc2nccc(C(F)(F)F)n2)cc(-c2ccc(CCC#N)nc2)c1` [Example 13.1, 3-[5-(3-Methyl-5-{[4-(trifluoromethyl)pyrimidin-2-yl]amino}phenyl)pyridin-2-yl]propanenitrile]: less than 100 nM; for `Cc1cc(Nc2nccc(C(F)(F)F)n2)cc(-c2ccc(N3CCC(N4CC(C(=O)O)CC4=O)CC3)nc2)c1` (centres unmarked) [Example 7.151, 1-{1-[5-(3-methyl-5-{[4-(trifluoromethyl)pyrimidin-2-yl]amino}phenyl)pyridin-2-yl]piperidin-4-yl}-5-oxopyrrolidine-3-carboxylic acid]: less than 100 nM.

The record behind these values is patent US9376418B2, “Substituted pyridine spleen tyrosine kinase (SYK) inhibitors” (Merck Sharp & Dohme Corp., priority 2012, dated 2016).
